Source: patent US20080200438A1, “Treatment of Autoimmune Diseases” (priority 2005, published 2008)
Entries after “also recorded” stand apart in the source; their conditions may differ.

Key:
[1] = tested on: acute experimental autoimmune encephalomyelitis (EAE); assay: Acute EAE model; format: in vivo, Lewis rat; settings: for Prevention of disease symptoms in the acute EAE model: doses between 0.1 and 10 mg/kg/day, oral
chronic-relapsing EAE = assay: Chronic-relapsing EAE model; format: in vivo, Lewis rat; settings: 0.3 mg/kg/day orally, day 16 to day 31
Text: Animal models: The monophasic model of acute experimental autoimmune encephalomyelitis (EAE) and the chronic relapsing form are considered to be instructive animal models for multiple sclerosis. EAE can be induced in susceptible animals by a single injection of CNS tissue or MBP emulsified in complete Freund's adjuvant into the base of the tail. A monophasic acute paralytic disease appears in susceptible rat strains, e.g., Lewis, Wistar rat, about 8-11 days post-sensitization. The symptomatic rats recover within the following 7 days, but in other species the attack is usually lethal. In the chronic relapsing disease models rats undergo one to three relapses following the acute disease bout. These relapses are usually from very mild to severe and are observed within 20-100 days after the acute bout.
Chronic-relapsing EAE is induced by injecting an emulsion of guinea pig spinal cord in complete Freund's adjuvant in the hind paws of Lewis rats. Six to ten rats per group are used and somatic symptoms are judged daily on a scale of 0-3. The number of diseased animals as well as the time of onset of the disease is recorded. […] The statistical significance between treated and untreated groups is analyzed on each day using ANOVA analysis of variance followed by Dunn's multiple comparisons. […]

chronic EAE = assay: Chronic EAE model; format: in vivo, DA rat
Procedure: Induction of AEA in DA rat is induced as described by Lorentzen et al, 1995, J. Neuroimmunol.; 63(2):193-205 and Adelmann et al, 1995, J. Neuroimmunol.; 63(1):17-27. Briefly, rats are immunized with a mixture of DA rat brain and DA rat and bovine spinal cord homogenate supplemented with 0.02 μg/ml purified recombinant rat MOG protein. The mixture is homogenized and then mixed 1:1 with complete Freund's adjuvant containing 4 mg/ml M. tuberculosis H37RA(CFA). The resultant mixture is then homogenized using a Polytron PT3100 homogenizer (Kinematica, Lucerne, Switzerland). Rats are then injected subcutaneously at the dorsal root of tail with a single injection of 200 μl antigen/CFA. The resultant chronic disease is evaluated using numeric scale of progressive paralysis: 0, no paralysis; 1, loss of tail tonicity; 2, hindlimb weakening or ataxia; 3, hindlimb paralysis with or without urinary incontinence; 4, hindlimb and forelimb paralysis; 5, moribund or death. Clinical scores are evaluated on a daily basis, while body weight is determined every other day. […] Treatment of animals begins at the peak clinical disease on the 12th day and continues daily the 33rd day post-immunization (total 22 days). The test compound or vehicle (for the control groups) is administered orally daily.

[2] = 0.1 mg/kg p.o. daily days 0-13, female Lewis rats
[3] = 0.3 mg/kg p.o. daily days 0-13, female Lewis rats
[4] = 1 mg/kg p.o. daily days 0-13, female Lewis rats

SMILES | First symptoms on day [1, 2] | Number of Animals with EAE/total Day 12 [1, 2] | Number of Animals with EAE/total Day 14 [1, 2] | First symptoms on day [1, 3] | Number of Animals with EAE/total Day 12 [1, 3] | Number of Animals with EAE/total Day 14 [1, 3] | First symptoms on day [1, 4] | Number of Animals with EAE/total Day 12 [1, 4] | Number of Animals with EAE/total Day 14 [1, 4] | Prevention of disease symptoms in the acute EAE model [1] | Prevention of clinical relapses in the chronic relapsing EAE model (chronic-relapsing EAE) | Inhibition of chronic EAE (chronic EAE; 0.3, 0.1 or 0.03 mg/kg/d orally, day 12 to day 33 post-immunization) | Clinical disease compared to vehicle group (chronic EAE; each dose (0.3, 0.1, 0.03 mg/kg/d orally), statistical analysis)
NC(CO)(CO)CCc1ccc(Sc2cccc(OCc3ccccc3)c2)cc1Cl [Compound A, 2-amino-2-[4-(3-benzyloxyphenylthio)-2-chlorophenyl]ethyl-propane-1,3-diol] | 9 days | 0/5 | 3/4 | 14 days | 0/5 | 1/5 | >14 days | 0/5 | 0/5 | lead to prevention of disease symptoms; also recorded: prevents disease symptoms | prevents clinical relapses | effectively inhibits chronic EAE | significant reduction in clinical disease
C[C@](N)(CO)CCc1ccc(Sc2cccc(OCc3ccccc3)c2)cc1Cl [Compound B, (R)-2-amino-4-[4-(3-benzyloxyphenylthio)-2-chlorophenyl]-2-methylbutane-1-ol] |  |  |  |  |  |  | >14 days | 0/5 | 0/5 | lead to prevention of disease symptoms |  |  | 
CC[C@](N)(CO)CCc1ccc(Sc2cccc(OCc3ccccc3)c2)cc1Cl [Compound C, (R)-2-amino-4-[4-(3-benzyloxyphenylthio)-2-chlorophenyl]-2-ethylbutane-1-ol] |  |  |  |  |  |  | >14 days | 0/5 | 0/5 | lead to prevention of disease symptoms |  |  | 
